# Results from patent US10849922B2, “Treatments for retinal disorders” (Cornell University, priority 2011, dated 2020).
# What was measured:
# A2E aggregation assay = conditions: A2E 25 μM aqueous solution
# Description: A2E aggregates are believed to have a role in RPE cell death. This study investigated whether cyclic oligosaccharides dissolve A2E aggregates that form in aqueous phase. The following can be deduced from FIG. 13:
# […] After three days, the liquid in each chamber was harvested and analyzed with a spectrofluorometer to detect the presence of A2E. Only inserts with 3 μm pores allowed A2E to diffuse through.
# The presence of A2E on each side was established by fluorescence scanning between 530-700 nm using 434 nm as the excitation wavelength.
# [1] = Fluorescence comparison of cyclodextrin binding to DHE; conditions: fluorescence spectra changes as a function of added β-CD concentration
# Description: The binding of A2E and DHE (fluorescent cholesterol analog to cyclodextrins) has been herein investigated by using the assay method described above. […] The determination of affinity constants and stoichiometry for new inclusion complexes can be complex, particularly when the molecular ratio host:guest is bigger than 1. For cholesterol, however, the affinity constants, stoichiometry, molecular structure, and applications of many of its inclusion complexes with cyclic oligosaccharides have been well established. In this context, the side-by-side comparation of A2E and cholesterol complex formation with the same cyclic oligosaccharide serves as an immediate reference to evaluate the quality of the inclusion complex with A2E, as well as help in the determination of its affinity constant, stoichiometry, and structure.
# A2E oxidation assay = conditions: A2E 5 μM in water, 48 hours, RT in the dark, cyclodextrin 10-100 mM
# Method: Solutions containing increasing amounts of Poly Beta-CD (0 mM to 100 mM) were prepared in water, and A2E was added to a final concentration of 5 μM. The solutions were incubated at RT in the dark. 48 hrs later, the UV-visible absorption spectra between 300 and 700 nm was analyzed to determine the oxidative status of A2E. […] These bands can be assigned to the shorter (S) and longer (L) arms of A2E, respectively. Oxidation of a carbon-carbon double bond is accompanied by a hypsochromic shift. A hypsochromic shift in band S corresponds with oxidation on the short arm; a blue-shift in band L reflects oxidation on the long arm; hypsochromic shifts in both peaks indicates oxidation on both side arms (Jang Y. P. et al., J. Biol. Chem., 2005, 280(48):39732-9). The results shown in FIG. 12A indicate that under this aqueous environment A2E oxidizes.
# [2] = A2E fluorescence assay for molecules able to encapsulate A2E (AUC ratio); format: binding; conditions: fluorescence spectra changes as a function of added β-CD concentration
# Method: In the assay method, at least two solutions containing a lipofuscin bisretinoid lipid are first provided, and the at least two solutions should be substantially the same in all respects, such as in the type of lipofuscin bisretinoid lipid, the concentration of lipofuscin bisretinoid lipid, and the solvent composition. A candidate compound is then added to at least one of the solutions. Fluorescence spectra of the two solutions (i.e., a first solution not containing the candidate compound and a second solution containing the candidate compound) is then measured at an excitation wavelength (e.g., 434 nm or other suitable excitation wavelength) that causes fluorescence of the lipofuscin bisretinoid lipid in the range of 530 nm and 700 nm, or any suitable sub-range therein. An area under the curve (AUC) is then determined for corresponding spectral curves of the first and second solutions within the range of 530 nm and 700 nm or a sub-range therein. […] A ratio of the AUC of the second solution (containing the candidate compound) over the AUC of the first solution (not containing the candidate compound) is then calculated. […]
# The fluorescence spectra were immediately determined (although it was stable for several days) between 530 and 700 nm using a 434 nm excitation wavelength. […] The area under the resulting spectral fluorescence curve was determined with statistical software (Prism4, GraphPad). […]
# eyecups from DKO mice = assay: In vitro assay on eyecups of DKO mice; conditions: 2 mM cyclodextrin, 36 hours of culture
# Method: FIGS. 17A, 17B. […] The resulting eyecups were in vitro treated with cyclodextrins for 36 hrs before observing them under the microscope (FIG. 17B).
# Eyecups comprise the dark pigmented RPE, choriocapillaries, as well as the grayish sclera. Eyecups were incubated in complete media containing, or not, 2 mM cyclodextrins. After 36 hours of culture, eyecups were flat mounted on glasses and fluorescence was analyzed in the microscope.
# DKO mice = assay: Fluorescence microscopy of cryosected retinas of DKO mice after subtenon injection; format: in vivo; conditions: single subtenon injection 4000 mg/kg, after 48 hours; for retinal detachment in cryosected retinas: 4000 mg/kg
# Method: FIG. 18. Micrographs showing the fluorescence of cryosected retinas of 8-months old WT and DKO mice. The micrographs obtained from (A) a normal mouse, (B) DKO animals not treated with methyl beta-CD, and (C) DKO animals treated with methyl beta-CD. The DKO animals have strong autofluorescence in the RPE layer compared with WT as well as retinal detachment (size shown by arrow). Single subtenon administration of methyl Beta CD (4000 mg/kg) reduced both RPE autofluorescence and retinal detachment.
# The retinas of wild type and DKO animals were analyzed by fluorescence microscopy with the following procedure. Briefly wild type and DKO animals were mock-treated or treated with a single subtenon injection with either vehicle or with methyl beta-cyclodextrin (4000 mg/kg). After 48 hours the eyes were enucleated, fixed, and cryosected. For viewing, 10-micron thick sections were blocked and stained with the red-fluorescently labeled lectin PNA to identify cones in the photoreceptor outer segments (PROS), and blue DAPI nuclear stain to identify the nuclei. In the gray scale micrograph of FIG. 18 (Panel A), the red and blue stains are not distinguishable, so the red fluorescence is labeled PROS and the lighter autofluorescent RPE is also labeled.
# [3] = cited from earlier work
compound,measurement,setting,value
"OC[C@H]1O[C@@H]2O[C@H]3[C@H](O)[C@@H](O)[C@@H](O[C@H]4[C@H](O)[C@@H](O)[C@@H](O[C@H]5[C@H](O)[C@@H](O)[C@@H](O[C@H]6[C@H](O)[C@@H](O)[C@@H](O[C@H]7[C@H](O)[C@@H](O)[C@@H](O[C@H]8[C@H](O)[C@@H](O)[C@@H](O[C@H]1[C@H](O)[C@H]2O)O[C@@H]8CO)O[C@@H]7CO)O[C@@H]6CO)O[C@@H]5CO)O[C@@H]4CO)O[C@@H]3CO [Compound 4, β-cyclodextrin]",dissolution of A2E aggregates in aqueous phase (diffusion through 0.2 μm pores),A2E aggregation assay,dissolved the A2E aggregates
same,formation of inclusion complex with DHE,[1],formation of DHE-β-CD
same,oxidation of A2E (UV-visible absorption spectra),A2E oxidation assay,oxidation of A2E was not observed
same,formation of inclusion complex with A2E,[2],A2E-β-CD inclusion complexes
Methyl-β-cyclodextrin [Compound 5],fluorescence of eyecups (bisretinoids in RPE),eyecups from DKO mice,lack of fluorescence
same,RPE autofluorescence (bisretinoids) in cryosected retinas,DKO mice,reduced
same,retinal detachment in cryosected retinas,DKO mice; listed as methyl Beta CD,reduced
same,retinal detachment in cryosected retinas,DKO mice; listed as methyl beta-cyclodextrin,reduced detachment
Triacetyl-β-cyclodextrin [Compound 12],solubility in water (in words),[3],insoluble
